Assay results taken from PMC7400577 (Scientific Reports, 2020).
Like-named read-outs stand apart in the source and are kept apart here.

Key:
hGAT3 = target: T1, hGAT3 (Homo sapiens, UniProt P48066); assay: [3H]GABA uptake inhibition at hGAT3 stably expressed in CHO Flp-In cells; assay type: cell-based; details: 30 nM [3H]GABA, 3 min, CHO Flp-In cells stably expressing hGAT3; read-out: IC50 hGAT3
T1 construct: expressed in transfected cells
T1 sequence (P48066 1-632): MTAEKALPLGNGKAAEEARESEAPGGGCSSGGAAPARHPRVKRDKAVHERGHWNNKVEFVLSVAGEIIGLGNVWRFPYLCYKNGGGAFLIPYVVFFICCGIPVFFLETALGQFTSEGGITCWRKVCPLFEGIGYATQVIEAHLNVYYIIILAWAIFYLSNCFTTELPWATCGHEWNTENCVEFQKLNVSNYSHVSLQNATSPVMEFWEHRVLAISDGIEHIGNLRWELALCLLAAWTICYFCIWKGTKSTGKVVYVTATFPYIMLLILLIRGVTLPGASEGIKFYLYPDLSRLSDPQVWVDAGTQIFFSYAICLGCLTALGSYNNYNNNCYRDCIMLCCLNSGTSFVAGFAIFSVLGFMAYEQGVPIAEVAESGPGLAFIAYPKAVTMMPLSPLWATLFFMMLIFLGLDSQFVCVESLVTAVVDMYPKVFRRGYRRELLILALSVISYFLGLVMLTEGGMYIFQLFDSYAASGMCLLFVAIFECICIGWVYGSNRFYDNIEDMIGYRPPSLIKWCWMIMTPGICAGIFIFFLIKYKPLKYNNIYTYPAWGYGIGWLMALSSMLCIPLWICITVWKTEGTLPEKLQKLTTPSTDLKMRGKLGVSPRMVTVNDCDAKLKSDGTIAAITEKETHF
Procedure: (§1) CHO Flp-In and tsA201 cells were cultured at 37 °C in a humidified atmosphere of […] and 5% CO2. As previously described[38],[63], CHO Flp-In cells stably expressing the hGATs were cultured in Ham’s F12 Nutrient Mix supplemented with 10% FBS, 1% P/S and plasmocin (5 µg/mL) under the selection pressure of hygromycin B (200 µg/mL). DMEM with GlutaMAX-I supplemented with 10% FBS and 1% P/S was used as growth medium for the tsA201 cells, which were transfected with DNA constructs using PolyFect according to the manufacturer’s specifications (Qiagen, West Sussex, UK), but with half of the recommended reagent volumes.
(§2) Uptake assays were performed in PDL-coated white 96-well polystyrene cell culture microplates (PerkinElmer, Boston, MA, USA) as previously described[38],[63]. […] Assay buffer was HBSS supplemented with 20 mM HEPES, 1 mM CaCl2 and 1 mM MgCl2, pH 7.4. […] After termination, scintillation liquid (MicroScint-20, PerkinElmer) was added and the radioactivity measured in a TopCount NXT Microplate Scintillation Counter (PerkinElmer).
(§3) Data analysis and statistical evaluation were performed in GraphPad Prism 7.02 (GraphPad Software, San Diego, CA, USA). Concentration-uptake inhibition curves, generated from the radioligand-based uptake assays, were fitted by non-linear regression, using the equation for sigmoidal concentration–response with variable slope: Y = Bottom + (Top–Bottom)/(1 + 10^((logIC50 − X) × HillSlope)), where Y is the response, X is the logarithm of the concentration, Top and Bottom are the plateaus in same units as Y, logIC50 is the concentration giving a response halfway between Bottom and Top, and the HillSlope is the steepness of the curve. For the substrate concentration–response curves generated from the FMP assay, the same equation was used but with logEC50 instead for logIC50. Unless otherwise stated, data are presented as means ± S.E.M. of at least three independent pooled experiments performed in triplicates.

hBGT1 E52A = target: T2, hBGT1 E52A (Homo sapiens, UniProt P48065, E52A); assay: cell-based; details: 30 nM [3H]GABA, tsA201 cells, transient expression
T2 sequence (P48065 1-614 E52A): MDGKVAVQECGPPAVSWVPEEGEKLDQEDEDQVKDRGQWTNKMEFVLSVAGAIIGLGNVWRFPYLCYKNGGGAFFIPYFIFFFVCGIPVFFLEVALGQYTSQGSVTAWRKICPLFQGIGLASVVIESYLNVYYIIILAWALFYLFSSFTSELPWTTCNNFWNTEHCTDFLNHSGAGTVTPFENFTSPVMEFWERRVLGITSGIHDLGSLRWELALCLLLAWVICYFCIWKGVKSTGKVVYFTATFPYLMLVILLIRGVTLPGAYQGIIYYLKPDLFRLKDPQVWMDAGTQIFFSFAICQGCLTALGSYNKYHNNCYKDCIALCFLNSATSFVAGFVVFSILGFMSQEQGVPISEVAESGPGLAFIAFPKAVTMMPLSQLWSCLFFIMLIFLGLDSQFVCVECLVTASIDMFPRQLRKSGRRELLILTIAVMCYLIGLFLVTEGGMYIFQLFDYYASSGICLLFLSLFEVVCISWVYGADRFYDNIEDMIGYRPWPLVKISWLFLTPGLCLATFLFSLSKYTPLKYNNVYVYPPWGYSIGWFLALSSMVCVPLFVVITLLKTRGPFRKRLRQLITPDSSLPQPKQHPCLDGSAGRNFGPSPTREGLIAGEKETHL

hGAT2 = target: T3, hGAT2 (Homo sapiens, UniProt Q9NSD5); assay: [3H]GABA uptake inhibition at hGAT2 stably expressed in CHO Flp-In cells; assay type: cell-based; details: 30 nM [3H]GABA, 3 min, CHO Flp-In cells stably expressing hGAT2; read-out: IC50 hGAT2
T3 construct: expressed in transfected cells
T3 sequence (Q9NSD5 1-602): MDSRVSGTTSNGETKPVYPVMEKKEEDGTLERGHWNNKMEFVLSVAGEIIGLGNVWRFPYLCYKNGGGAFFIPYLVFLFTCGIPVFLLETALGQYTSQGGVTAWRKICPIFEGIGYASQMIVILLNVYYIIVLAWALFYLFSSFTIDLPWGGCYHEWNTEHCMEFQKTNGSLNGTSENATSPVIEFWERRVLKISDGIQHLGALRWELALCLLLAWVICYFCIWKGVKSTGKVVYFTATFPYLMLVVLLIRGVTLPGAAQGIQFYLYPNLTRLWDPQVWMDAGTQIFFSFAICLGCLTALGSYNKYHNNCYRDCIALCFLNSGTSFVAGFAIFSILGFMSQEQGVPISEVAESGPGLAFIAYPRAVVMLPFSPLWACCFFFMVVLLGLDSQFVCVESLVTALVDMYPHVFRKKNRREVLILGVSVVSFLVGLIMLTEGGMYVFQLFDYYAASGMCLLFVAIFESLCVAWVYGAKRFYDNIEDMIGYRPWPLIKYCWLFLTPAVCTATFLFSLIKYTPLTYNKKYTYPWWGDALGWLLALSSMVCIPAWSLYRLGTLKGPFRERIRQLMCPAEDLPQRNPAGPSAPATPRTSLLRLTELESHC
Procedure: as §1, §2, §3

hGAT3 wt = target: T4, hGAT3 wt (Homo sapiens, UniProt P48066); assay: [3H]GABA uptake inhibition at wt hGAT3 transiently expressed in tsA201 cells; assay type: cell-based; details: 30 nM [3H]GABA, transient expression
T4 construct: expressed in transfected cells; host or cells: tsA201 cells, transient (PolyFect), pcDNA5/FRT vector
T4 sequence (P48066 1-632): T1 sequence (P48066 1-632)

[1] = read-out: pIC50 ± S.E.M. GAT3 wt (converted)

| Structure (SMILES) | IC50 (hGAT3) [µM] | IC50 (hBGT1 E52A; IC50 BGT1 E52A) [µM] | IC50 (hBGT1 E52A; pIC50 ± S.E.M. BGT1 E52A) [µM] | IC50 (hGAT2) [µM] | IC50 (hGAT3 wt; read-out: IC50 GAT3 wt) [µM] | IC50 (hGAT3 wt; [1]) [µM] |
| --- | --- | --- | --- | --- | --- | --- |
| CCN1CC(C(=O)O)CN=C1N.Cl (stereo not shown) [compound 3] | > 1000 | 74 | 72.4 | > 1000 | > 1000 |  |
| NC1=NC=C(C(=O)O)CN1.O=C(O)C(F)(F)F [compound 11] | > 1000 | 247 | 240 | > 1000 | > 1000 |  |
| NC1=NCC(C(=O)O)CN1 (stereo not shown) [ATPCA, 2-amino-1,4,5,6-tetrahydropyrimidine-5-carboxylic acid, reference compound] |  | 4.4 |  |  | 851 | 589 |
| C[C@@H]1N=C(N)NC[C@@H]1C(=O)O (single isomer, unassigned) [l-15a] | > 1000 |  | 37.2 | > 1000 | > 1000 |  |
| NC1=NCC(C(=O)O)CC1 (stereo not shown) [compound 2, 6-amino-2,3,4,5-tetrahydropyridine-3-carboxylic acid, reference compound] | > 1000 | 31 | 30.2 | > 1000 | > 1000 |  |
| Cl.NC1=NCC(C(=O)O)CN1Cc1ccccc1 (stereo not shown) [compound 4] | 117 | 90 | 87.1 | 105 | 122 | 115 |
